Data on two compounds can be found in patent US20220395553A1, “CXCR4 ANTAGONIST PEPTIDES” (COHBAR, INC., priority 2019, published 2022).

One experiment concerns U937 cells. The experiment can be described thus: CXCL12 mediated cell migration, U937 cells. Type of experiment: cell-based, human. The conditions noted are these: Homo sapiens, U-937, 4 h, read-out: Percent Inhibition of CXCL12 Mediated Migration. Here is the method: Peptides were initially prepared as 1 mM stock in H2O and tested at a final concentration of 1 μM. […] U937 cells were resuspended in serum free media containing 0.5% bovine serum albumin (RPMI+GlutaMax (Gibco/Thermo Fisher Scientific, Gaithersburg, Md.)) at density of 5×10^6 cells/ml. […] Following the 4 hour incubation period the filter inserts were carefully removed and the migration of cells across the filter into the bottom chamber (receiver wells) was determined by measuring ATP levels using Cell TiterGlo 2.0, according to manufacturer's instructions (Promega, Madison, Wis.); luminescence measured using a Cytation 3 plate reader (BioTek, Winooski, Vt.).

Another experiment relates to Jurkat cells. The experiment in a line: CXCL12 mediated cell migration, Jurkat cells. Type of experiment: cell-based, human. The conditions noted are these: Homo sapiens, Jurkat, 1 h, read-out: Percent Inhibition of CXCL12 Mediated Migration (1.1 μM Test Article). The gist of the method:
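Jurkat cells in serum-free RPMI with 0.5% BSA, 250,000 per upper chamber of a 5 μm Transwell, with peptides at 1.1 μM final. Migration toward CXCL12 ran 1 h at 37 °C in 5% CO2. Cells reaching the lower chamber quantified by ATP luminescence (CellTiter-Glo 2.0).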

Experiment [1] deals with CXCR4/CXCL12 induced p-MEK. The experiment in a line: CXCR4/CXCL12 induced p-MEK in Jurkat cells (ELISA). The following applies: Homo sapiens, Jurkat, 5 min. It is filed as cell-based, human. In short, it runs like this:
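Jurkat cells in RPMI+GlutaMax containing 10% FBS and 1% penicillin/streptomycin, fresh or conditioned, were resuspended at 2×10^6 cells/ml and […] aliquots placed in tubes. After a 5 min stimulation they were pelleted, rinsed with HBSS and lysed with PMSF and protease/phosphatase inhibitors. Phospho-MEK1 (Ser217/221) was quantified by sandwich ELISA with absorbance read at 450 nm.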
For orientation: ELISA stands for enzyme-linked immunosorbent assay.

A further experiment deals with Rat H-4-II-E Cells. The experiment can be described thus: TBHP-induced reactive oxygen species (DCFDA). The following applies: sulforaphane 10 uM. It is filed as cell-based. Here is the method: The protective or synergistic effect of the peptides on cellular levels of reactive oxygen species (ROS) induced by oxidative stress can be assessed using an assay of ROS in cultured cells exposed to a suitable oxidative stress. Peptides were initially prepared as 10 mM stock in DMSO and tested at a final concentration of 10 μM (0.1% DMSO). […] TBHP was used at final concentration of […]. Sulforaphane was used at a final concentration of 10 uM as a protective antioxidant control against TBHP induced ROS production. DCFDA Cellular ROS Detection Assay kit was purchased from […]. H-4-II-E rat liver hepatoma cell line was purchased from American Type Culture Collection (Manassas, Va.). H-4-II-E cells were grown in DMEM supplemented with 10% FBS with 100 IU/ml penicillin and 100 μg/ml streptomycin. Cultures were maintained at 37° C. in a humidified atmosphere of 5% CO2/95% air. H-4-II-E cells were seeded at 15,000-20,000 cells per well on 96-well plates. The next day cells were incubated with test peptides at 10 μM in 0.1% DMSO or sulforaphane at 10 uM and maintained at 37° C. in a humidified atmosphere of 5% CO2/95% air for 18-20 hours. After 18-20 hours of incubation the cells were loaded with DCFDA for 45 min. TBHP at 100 μM was then added to the appropriate wells for 1 hour. ROS activity was determined using a DCFDA Cellular ROS Detection Assay kit (Abcam) according to the manufacturer's instructions. Fluorescence in each sample well on the plate was measured using a Cytation 3 plate reader at Ex/Em=485/535 nm (BioTek, Winooski, Vt.). Activity was calculated relative to TBHP control. […] Activity was calculated relative to THBP treated control.

For the compound `c1cc(CN2CCCNCCNCCCNCC2)ccc1CN1CCCNCCNCCCNCC1` [AMD3100, reference compound], in the experiment on U937 cells, the inhibition at 30 µM came out at 99%. In addition, in the experiment with Jurkat cells, the inhibition at 1.1 µM came to 91%. Further, the inhibition at 0.1 µM in experiment [1] (read-out: Percent Inhibition of CXCR4/CXCL12 Induced p-MEK (100 nM Test Article)) was found to be 79%. In experiment [1] (read-out: Percent Inhibition of CXCR4/CXCL12 Induced p-MEK (1 μM Test Article)), the inhibition at 1 µM was 91%.
As to `C[S+]([O-])CCCCN=C=S` (centres unmarked) [sulphorophane, Sulforaphane, reference compound], in the experiment with Rat H-4-II-E Cells, the “ROS levels, % of the THBP-induced ROS level” value was found to be 45.5%.
